The record followed here is patent US11596620B2, “Formulations with reduced oxidation” (Genentech, Inc., priority 2013, dated 2023).

“Also recorded” adds a separate entry of the source.

Series [1] is described as follows: Photosensitivity screening assay (H2O2 by Amplex Ultra Red after light exposure). The series is classed as physicochemical. The conditions noted are these: for (H2O2 produced by Compound)/(H2O2 produced by L-Trp) / H2O2 produced compared to L-Trp, in words: 1 mM in 20 mM histidine acetate pH 5.5, four hours of light at 250 W/m^2; for H2O2 produced in comparison to L-Trp: 1 mM, four hours of light at 250 W/m^2, times more H2O2 than L-Trp. Here is the method: As a screening tool, antioxidant candidates were exposed to light for four hours at 250 W/m^2 and the resulting H2O2 formation was quantified by the Amplexassay. Specifically, antioxidants were prepared to 1 mM in 20 mM histidine acetate buffer at pH 5.5. The 1 mM antioxidant solutions were aliquoted into glass vials (2 mL/glass vial) and exposed to four hours of light at 250 W/m^2 in an Atlas SunTest CPS+ Xenon Test Instrument (Chicago, Ill.). Total UV dose was 90 watt-hours/square meter and total visible dose was 0.22 million lux hours over the 4-hour period. Control vials were wrapped in aluminum foil and treated similarly. The amount of hydrogen peroxide generated after exposure to light was measured using the Amplex® Ultra Red Assay (Invitrogen, Carlsbad, Calif.) following the manufacturer's recommended procedure. On addition of horseradish peroxidase (HRP), the dye reacted 1:1 stoichiometrically with H2O2, resulting in the production of fluorescent oxidation product resorufin. In this study, fluorescence readings were obtained using a Spectra Max M2 Micro-plate Reader (Molecular Devices, Sunnyvale, Calif.) with excitation and emission set at 560 nm and 590 nm, respectively. Final H2O2 concentrations were determined using a standard curve ranging from 0 μm to 20 μm.

The nature of series [2]: Cyclic voltammetry (CV) screening assay, oxidation potential. It counts as physicochemical. Here is the method:
The oxidation/reduction characteristics of the compounds were investigated. Several compounds, including L-Trp and derivatives, were evaluated for the protection of Trp oxidation in proteins using cyclic voltammetry (CV) and rank ordered based on their oxidation potentials (Table 2). Specifically, the candidate antioxidants were dissolved in deionized water and then added to a 0.2 M lithium perchlorate electrolyte solution. […] Solutions were scanned from −0.10 V to +1.50 V at a scan rate of either 100 or 500 mV/sec. The analytical cell was purged for four minutes with nitrogen before scanning of each antioxidant solution. The input was a linear scan of the potential of a working electrode, and the output was measurement of the resulting current. […] Redox reactions were characterized by sharp increases or decreases in current (peaks). The potential at which an oxidation reaction occurred was referred to as the anodic peak potential (or oxidation potential), and the potential at which a reduction occurred was referred to as is the cathodic peak (or reduction) potential.

The mark [3] stands for this setting: anodic peak potential, glassy carbon working electrode, 0.2M lithium perchlorate.
Setting [4] is: cyclic voltammetry, 0.2 M lithium perchlorate.

On to `Nc1ccc2[nH]cc(CC(N)C(=O)O)c2c1` (racemic) [5-Amino-DL-Trp, 5-amino-DL-tryptophan], for which, in series [1], the “(H2O2 produced by Compound)/(H2O2 produced by L-Trp)” value amounted to 0.29. Further, the “Oxidation Potential” value in series [2] (setting [3]) and in series [2] (setting [4]) was 0.410 V vs Ag/AgCl throughout.

As for `COc1ccc2[nH]cc(CC(N)C(=O)O)c2c1` (racemic) [5-Methoxy-DL-Trp, 5-methoxy-DL-tryptophan], in series [1], the “(H2O2 produced by Compound)/(H2O2 produced by L-Trp)” value is on record as 1.05. The “Oxidation Potential” value in series [2] (setting [3]) and in series [2] (setting [4]) was 0.890 V vs Ag/AgCl each time.

For `NC(Cc1c[nH]c2ccc([N+](=O)[O-])cc12)C(=O)O` (racemic) [5-nitro-DL-tryptophan], the “Oxidation Potential” value in series [2] (setting [3]) came to 1.055 V vs Ag/AgCl. In addition, the “Oxidation potential relative to L-Trp, in words” value in series [2] (cyclic voltammetry) is on record as “higher oxidation potential than L-Trp”.

For the molecule `Oc1cccc2[nH]ccc12` [4-Hydroxyindole], the “(H2O2 produced by Compound)/(H2O2 produced by L-Trp)” value in series [1] stood at 0.00.

In the case of `N[C@@H](Cc1c[nH]c2ccc(F)cc12)C(=O)O` [5-Fluoro-L-Trp, 5-fluoro-L-tryptophan], in series [1], the “(H2O2 produced by Compound)/(H2O2 produced by L-Trp)” value came out at 0.71. In series [2] (setting [3]), the “Oxidation Potential” value came out at 0.965 V vs Ag/AgCl. The “Oxidation potential relative to L-Trp, in words” value in series [2] (cyclic voltammetry) is recorded as “higher oxidation potential than L-Trp”.

`Nc1ccc(O)cc1C(=O)O` [5-Hydroxyanthranilic Acid]: in series [1], the “(H2O2 produced by Compound)/(H2O2 produced by L-Trp)” value is recorded as 0.44 and the “H2O2 produced compared to L-Trp, in words” value is listed as “half as much H2O2”.

For the molecule `O=C(O)Cc1c[nH]c2ccc(O)cc12` [5-Hydroxyindole-3-Acetic Acid], in series [1], the “(H2O2 produced by Compound)/(H2O2 produced by L-Trp)” value came out at 0.11. Also, the “Oxidation Potential” value in series [2] (setting [3]) worked out at 0.535 V vs Ag/AgCl.

With `O=C(O)c1cc(O)ccc1O` [5-Hydroxysalicylic Acid], in series [1], the “(H2O2 produced by Compound)/(H2O2 produced by L-Trp)” value is reported as 0.84 and the “H2O2 produced compared to L-Trp, in words” value is “behaved like L-Trp”.

In the case of `O=C(O)c1cc2cccc(O)c2[nH]1` [7-Hydroxyindole-2-Carboxylic Acid], the “(H2O2 produced by Compound)/(H2O2 produced by L-Trp)” value in series [1] was determined as 0.15.

Regarding `Nc1ccccc1C(=O)O` [Anthranilic Acid], in series [1], the “(H2O2 produced by Compound)/(H2O2 produced by L-Trp)” value was 2.50 and the “H2O2 produced compared to L-Trp, in words” value was “twice as much H2O2”.

As to `O=C(O)Cc1c[nH]c2ccccc12` [Indole-3-Acetic Acid], in series [1], the “(H2O2 produced by Compound)/(H2O2 produced by L-Trp)” value amounted to 2.40 and the “H2O2 produced compared to L-Trp, in words” value was “twice as much H2O2; also recorded: two times more H2O2”. The “Oxidation Potential” value in series [2] (setting [3]) was 0.948 V vs Ag/AgCl. Besides, the “Oxidation potential relative to L-Trp, in words” value in series [2] (cyclic voltammetry) is “higher oxidation potential than L-Trp”.

As to `c1ccc2[nH]ccc2c1` [Indole], in series [1], the “(H2O2 produced by Compound)/(H2O2 produced by L-Trp)” value is on record as 0.95 and the “H2O2 produced compared to L-Trp, in words” value is listed as “behaved similarly to L-Trp”. Besides, the “Oxidation potential relative to L-Trp, in words” value in series [2] (cyclic voltammetry) was “significantly lower oxidation potential than L-Trp”.

As to `Nc1ccccc1C(=O)C[C@H](N)C(=O)O` [L-Kynurenine, L-kynurenine], in series [1], the “(H2O2 produced by Compound)/(H2O2 produced by L-Trp)” value amounted to 0.20 and the “H2O2 produced compared to L-Trp, in words” value is recorded as “about one fifth”. In addition, the “Oxidation Potential” value in series [2] (setting [3]) is 1.040 V vs Ag/AgCl. In addition, in series [2] (cyclic voltammetry), the “Oxidation potential relative to L-Trp, in words” value is reported as “higher oxidation potential than L-Trp”.

For `COc1ccc2[nH]cc(CCNC(C)=O)c2c1` [Melatonin (N-Acetyl-5-Methoxytryptamine), N-Acetyl-5-Methoxytryptamine], in series [1], the “(H2O2 produced by Compound)/(H2O2 produced by L-Trp)” value was determined as 0.28 and the “H2O2 produced compared to L-Trp, in words” value is listed as “less than a third”. In series [2] (setting [3]), the “Oxidation Potential” value amounted to 0.730 V vs Ag/AgCl.

`Cc1ncc(CO)c(CO)c1O` [Pyridoxine]: in series [1], the “(H2O2 produced by Compound)/(H2O2 produced by L-Trp)” value amounted to 5.16 and the “H2O2 produced in comparison to L-Trp” value was found to be 5 times.

For `Cc1c(C)c2c(c(C)c1O)CCC(C)(C(=O)O)O2` (stereo not drawn) [Trolox], in series [1], the “(H2O2 produced by Compound)/(H2O2 produced by L-Trp)” value is given as 122.75 and the “H2O2 produced in comparison to L-Trp” value is 123 times.
